Key:
[1] = pH titration of fluorescence intensity; format: physicochemical; settings: probe 2 μM
Method: As shown by FIG. 2, the fluorescence intensity of the probe 1 decreased at pH values above 8.0. […] Thus, the probe can be expected to work well under physiological conditions (pH 7.30, PBS buffer). In the presence of D-fructose (100 mM), the fluorescence of the formed 1-D-fructose complex increases due to the enhanced N—B interaction at different pH values. The fluorescence of 1-D-fructose complex decreases over a pH range of 3-11.

[2] = Fluorescence response to D-fructose binding; settings: probe 2 μM; D-fructose 100 mM; pH 7.3 buffer
Method: (a) Fluorescence spectra of probe 1 (2 μM) and then addition of D-fructose (100 mM). After addition of D-fructose, the mixtures were stirred for 10 min; (b) Probe 1-D-fructose complex (probe 1, 2 μM; D-fructose, 100 mM) in different concentration of ONOO^−. After addition of peroxynitrite, the mixtures were stirred for 5 min;
The saccharide-boronic acid complexes were formed by mixing free boronic acid (2 μM) with D-fructose (100 mM) for 10 min in situ.
In the case of probe 1, a significant “off-on” signal response is seen on binding with D-fructose due to an inhibition of PET mechanism. From FIG. 3a, the maximum fluorescence intensity of probe 1 (2 μM, λem=525 nm) is increased two-fold in the presence of D-fructose (100 mM) at pH 7.3 buffer solution.

[3] = Fluorescence titration with peroxynitrite; settings: saccharide free probe 2 μM; peroxynitrite 60 μM; pH 7.3 PBS
[4] = Fluorescence response to hydrogen peroxide
Method: The pH was adjusted from 7.30 to 8.10 using aqueous sodium hydroxide (10 N); (b) Fluorescence spectra of probe 1-D-fructose complex (probe 1, 2 μM; D-fructose, 100 mM) in the presence of hydrogen peroxide (1 mM) at pH 7.3 buffer solution. The spectra were collected at increasing reaction times with excitation at 410 nm (Ex slit: 5.0, Em slit: 5.0);
The concentration of hydrogen peroxide (H2O2) was determined from the absorption at 240 nm (ε=43.6 M^−1 cm^−1).
Since boronate-based derivatives can be oxidized to phenol by H2O2 and ONOO^−, it is important to discriminate them by fluorescence tools. Independently, the present inventors tested the responses of probe 1 and 1-D-fructose complex towards hydrogen peroxide (FIG. 7). With the free boronic acid system, the fluorescence of probe 1 (2 μM) increased to F/F0=ca. 1.59 in the presence of hydrogen peroxide (100 μM) over 1 h at pH 7.30 buffer solution. When the solution was adjusted to pH 8.10, the fluorescence decreased most probably due to the decomposition of the intermediate to phenol (FIG. 7a). This is different from the process observed for the detection of ONOO^− in which boronic acid was transformed into phenol quickly and directly.
The fluorescence reaction of 1-D-fructose complex towards ONOO^− amd H2O2 at pH 5.0 buffer solution in order to mimic the acidic conditions found in cancer cells (FS5) was also studied. […]

[5] = UV-Vis absorption spectra; format: physicochemical
Method: While the presence of ONOO^− (100 μM), a new peak (A=0.021) at 360 nm developed due to the formation of phenol.

pH effect on fluorescence intensity ([1]; pH range between 3.0 and 8.0): minimal effect | pH effect on fluorescence intensity ([1]; pH values above 8.0): decreased | increase of maximum fluorescence intensity (λem=525 nm) in presence of D-fructose [2]: two-fold | maximum absorption A at 440 nm ([5]; free boronic acid probe 2 μM): 0.026 | absorption A of new peak at 360 nm ([5]; in presence of ONOO− 100 μM): 0.021 | absorption A at the maximum absorption wavelength ([5]; probe 2 μM with D-fructose 100 mM): 0.019
SMILES: CN(CCNc1ccc2c3c(cccc13)C(=O)N(CCOCCO)C2=O)Cc1ccccc1B(O)O [probe 1]
F/F0 [3]: ca. 0.10 | F/F0 ([4]; free boronic acid probe 2 μM, hydrogen peroxide 100 μM over 1 h, pH 7.30 buffer): ca. 1.59 | fluorescence after adjusting the solution to pH 8.10 ([4]; probe 2 μM after H2O2 100 μM, pH adjusted from 7.30 to 8.10): decreased
